Assay results from publication PMC9118553, “In Vivo Bioconcentration of 10 Anionic Surfactants in Rainbow Trout Explained by In Vitro Data on Partitioning and S9 Clearance” (Environmental Science & Technology, 2022).
“And” between values parts separate entries of the source, which are not always exact repeats. Equal values may be shown once. Marks after values point to notes of the source that are not given here.

System: rainbow trout
Assay: In vivo bioconcentration experiment with a mixture of anionic surfactants, flow-through aquaria, 10 °C, pH 7.8;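 for Uptake rate constant kU: L kg-1 h-1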
Details: for Log BCF: determined with measured concentrations in water; for Concentration in fish: individual fish; for diffusion coefficient (D) in the epithelial membrane of the gills: in vivo; for BCF (kinetic): kinetic BCF from measured concentrations in water; for BCF (steady-state): plateau 6-96 h, 95% confidence interval in brackets
Experimental: The bioconcentration of a mixture of 10 anionic surfactants was measured in rainbow trout in water at pH 7.8. […] The experiment was conducted in flow-through aquaria with juvenile rainbow trout at 10 °C. Ethical approval for the experiments was obtained from Stockholms […] (decision 9967-2017). The fish, fish housing, fish handling, and procedure for introducing the mixture of […] chemicals were very similar to our previous study with cationic surfactants;[5] details are provided in Text S1. The experiment consisted of a 4-day exposure phase and a 7-day depuration phase. […] Water samples were collected and fish were sacrificed according to the schedule in Table S4. The water samples were collected just prior to the daily removal of feces from the aquarium. Triplicate samples were taken at each time point. […] The water/methanol mixture was analyzed using liquid chromatography-mass spectrometry (LC-MS)/MS as described below for fish. At each fish sampling, five fish were sacrificed. Following stunning and severance of the spinal cord, the whole fish were placed in a polyethylene bag, weighed, and immediately frozen at -20 °C. The weight of the individual fish at sacrifice was 24.0 ± 5.6 g. Three of the five fish from each time point were prioritized for analysis based on proximity to the median fish weight. Each fish was […] homogenized with an Ultra-turrax dispersing device. […] This mixture was homogenized in a bullet blender for 5 min and then placed in an ultrasound bath at 45 °C for 15 min. Following centrifugation for 15 min@3200 RCF, the supernatant was decanted and the extraction was repeated. The extracts were combined. For instrumental analysis, 5 μL of the fish extract or 60 μL of the water/methanol mixture (water samples) was separated on an Acquity UPLC BEH C18 column fitted with a BEH C18 pre-column and analyzed on a TSQ Quantiva triple quadrupole mass spectrometer. The mobile phase was methanol (10 mM ammonium acetate) and Milli-Q-filtered water (10 mM ammonium acetate) (see Table S5 for the liquid chromatography program). To avoid detergent blank peaks originating from cleaning mobile phase bottles, the methanol was prepared directly in the solvent bottle as delivered and Milli-Q was tapped into an empty methanol bottle. Furthermore, a guard column was fitted between the mobile phase and the autosampler to prevent background contamination from disturbing the analysis. All analytes were quantified against the BEHP internal standard, as it gave better reproducibility. […] The central goal of the analysis was to estimate kU and kT as well as the BCF (=kU/kT) from measurements of surfactant concentration in fish and water samples collected at different time points of the experiment. For the fish, only those time points were included for which CF(measured) was above the limit of quantitation (LOQ) in all three fish (data below the LOQ will have a positive bias; including them would result in a negative bias in kT). In this analysis, there exist two sources of uncertainty: first, uncertainty in the actual concentration in water CW at the time of sample collection and second, variability in the concentration in fish around the (expected) surfactant concentrations in fish assumed to follow model (1). We therefore set up a model in which we considered uncertainty in both water and fish measurements simultaneously by assuming a parametric model for the surfactant concentration in the water over time (either linear or quadratic) and accounted for the uncertainty in the corresponding parameters of the water model during the estimation of kU and kT. This was done in a joint Bayesian model that we estimated via Hamiltonian Monte Carlo. […]

[1] = determined using nominal concentrations in water
[2] = from measured concentrations in water, Bayesian estimate, 95% credible interval in brackets
[3] = 95% credible interval in brackets
[4] = measured concentrations in water, simpler estimation method (Text S3), 95% confidence intervals in brackets
[5] = measured concentrations in water

| Compound | BCF [1] | Log BCF | Concentration in fish (elimination phase, 97 h) | Concentration in fish (elimination phase, 98 h) | Concentration in fish (elimination phase, 100 h) | Concentration in fish (elimination phase, 103 h) | Concentration in fish (elimination phase, 120 h) | Concentration in fish (elimination phase, 128 h) | Concentration in fish (elimination phase, 144 h) | Concentration in fish (elimination phase, 168 h) | Concentration in fish (elimination phase, 192 h) | Concentration in fish (elimination phase, 264 h) | Concentration in fish (exposure phase, 1 h) | Concentration in fish (exposure phase, 2 h) | Concentration in fish (exposure phase, 3 h) | Concentration in fish (exposure phase, 4 h) | Concentration in fish (exposure phase, 6 h) | Concentration in fish (exposure phase, 24 h) | Concentration in fish (exposure phase, 48 h) | Concentration in fish (exposure phase, 72 h) | also measured |
| --- | --- | --- | --- | --- | --- | --- | --- | --- | --- | --- | --- | --- | --- | --- | --- | --- | --- | --- | --- | --- | --- |
| CCCCCCCCCCc1ccc(S(=O)(=O)O)cc1 [C10-1-LAS, 1-n-(p-sulfophenyl)decane] | 15.0 L kg-1 ww | 1.21 L kg-1 ww | 78 ng g-1 ww (2×) and 103 ng g-1 ww | 73 ng g-1 ww and 72 ng g-1 ww and 55 ng g-1 ww | 74 ng g-1 ww and 57 ng g-1 ww and 60 ng g-1 ww | 47 ng g-1 ww and 58 ng g-1 ww and 51 ng g-1 ww | 24 ng g-1 ww and 27 ng g-1 ww and 17.2 ng g-1 ww | 14.0 ng g-1 ww and 17.0 ng g-1 ww and 18.2 ng g-1 ww | 7.6 ng g-1 ww and 6.8 ng g-1 ww and 10.2 ng g-1 ww | 4.7 ng g-1 ww and 3.5 ng g-1 ww (2×) | 1.08 ng g-1 ww and 1.14 ng g-1 ww and 1.40 ng g-1 ww | 1.0 ng g-1 ww and 0.7 ng g-1 ww and 0.31 ng g-1 ww | 8.9 ng g-1 ww and 6.9 ng g-1 ww and 16.6 ng g-1 ww | 11.3 ng g-1 ww and 10.6 ng g-1 ww and 7.2 ng g-1 ww | 16.5 ng g-1 ww and 19.7 ng g-1 ww and 16.6 ng g-1 ww | 26 ng g-1 ww and 32 ng g-1 ww and 75 ng g-1 ww | 38 ng g-1 ww (2×) and 27 ng g-1 ww | 86 ng g-1 ww and 91 ng g-1 ww and 64 ng g-1 ww | 94 ng g-1 ww and 98 ng g-1 ww and 84 ng g-1 ww | 112 ng g-1 ww and 87 ng g-1 ww and 70 ng g-1 ww | Elimination rate constant kT [1]: 0.049 h⁻¹; Uptake rate constant kU [1]: 0.74 L/kg/h; Concentration in fish (exposure phase, 96 h): 113 ng g-1 ww and 104 ng g-1 ww and 110 ng g-1 ww; Elimination rate constant kT [2]: 0.047 (0.044–0.050) h^–1; Uptake rate constant kU [2]: 0.77 (0.67–0.87) L kg^–1 ww h^–1; diffusion coefficient (D) in the epithelial membrane of the gills: 2.4 × 10^–8 m h^–1; BCF (kinetic) [3]: 16.3 (14.6–18.2) L kg^–1 ww; BCF [4]: 14.7 (8) L kg-1 ww; Elimination rate constant kT [4]: 0.046 (3) h-1; Uptake rate constant kU [4]: 0.67 (8) L kg-1 ww h-1; BCF (own values): 16.3 L kg^–1 |
| CCCCCCCCCCS(=O)(=O)O [C10SO3, decylsulfonate] | 0.046 L kg-1 ww | -1.38 L kg-1 ww | 3.0 ng g-1 ww and 1.5 ng g-1 ww and 1.3 ng g-1 ww | 1.5 ng g-1 ww and 1.0 ng g-1 ww and 1.4 ng g-1 ww | 5.1 ng g-1 ww and 1.4 ng g-1 ww (2×) | 0.3 ng g-1 ww (2×) and 0.6 ng g-1 ww | 0.50 ng g-1 ww and 0.76 ng g-1 ww and 0.61 ng g-1 ww | 0.62 ng g-1 ww and 0.49 ng g-1 ww and 0.99 ng g-1 ww | 0.63 ng g-1 ww and 0.33 ng g-1 ww and 5.2 ng g-1 ww | 0.49 ng g-1 ww and 0.55 ng g-1 ww and 0.16 ng g-1 ww | 0.14 ng g-1 ww and 0.15 ng g-1 ww and 0.22 ng g-1 ww | 2.0 ng g-1 ww and 1.9 ng g-1 ww and 0.2 ng g-1 ww | 1.1 ng g-1 ww and 2.1 ng g-1 ww and 1.4 ng g-1 ww | 1.1 ng g-1 ww (2×) and 7.5 ng g-1 ww | 1.5 ng g-1 ww and 1.6 ng g-1 ww and 5.5 ng g-1 ww | 2.4 ng g-1 ww and 3.5 ng g-1 ww and 6.5 ng g-1 ww | 2.1 ng g-1 ww and 2.0 ng g-1 ww and 1.4 ng g-1 ww | 42.8 ng g-1 ww and 1.4 ng g-1 ww (2×) | 2.4 ng g-1 ww and 3.6 ng g-1 ww and 1.7 ng g-1 ww | 3.6 ng g-1 ww and 2.1 ng g-1 ww and 3.0 ng g-1 ww | Concentration in fish (exposure phase, 96 h): 3.0 ng g-1 ww (2×) and 2.8 ng g-1 ww; BCF (steady-state) [5]: 0.042 ^d (0.034–0.050) L kg^–1 ww |
| CCCCCCCCCCCS(=O)(=O)O [C11SO3, undecylsulfonate] | 0.137 L kg-1 ww | -0.87 L kg-1 ww | 5.5 ng g-1 ww and 3.8 ng g-1 ww and 3.2 ng g-1 ww | 3.2 ng g-1 ww and 2.8 ng g-1 ww and 30.6 ng g-1 ww | 14.1 ng g-1 ww and 2.8 ng g-1 ww and 3.1 ng g-1 ww | 2.2 ng g-1 ww and 3.0 ng g-1 ww and 6.7 ng g-1 ww | 0.58 ng g-1 ww and 0.87 ng g-1 ww and 0.78 ng g-1 ww | 0.53 ng g-1 ww and 0.50 ng g-1 ww and 0.58 ng g-1 ww | 0.49 ng g-1 ww and 0.42 ng g-1 ww and 0.53 ng g-1 ww | 0.56 ng g-1 ww and 0.41 ng g-1 ww and 0.22 ng g-1 ww | 0.10 ng g-1 ww and 0.19 ng g-1 ww (2×) | 1.49 ng g-1 ww and 0.23 ng g-1 ww and 0.19 ng g-1 ww | 3.2 ng g-1 ww and 1.5 ng g-1 ww and 8.4 ng g-1 ww | 2.1 ng g-1 ww and 1.9 ng g-1 ww and 1.4 ng g-1 ww | 2.9 ng g-1 ww and 3.6 ng g-1 ww and 3.2 ng g-1 ww | 3.5 ng g-1 ww and 13.4 ng g-1 ww and 41 ng g-1 ww | 4.7 ng g-1 ww and 5.0 ng g-1 ww and 3.8 ng g-1 ww | 5.5 ng g-1 ww and 4.2 ng g-1 ww and 3.8 ng g-1 ww | 4.4 ng g-1 ww and 5.1 ng g-1 ww and 3.7 ng g-1 ww | 7.2 ng g-1 ww and 5.2 ng g-1 ww and 4.9 ng g-1 ww | Concentration in fish (exposure phase, 96 h): 8.1 ng g-1 ww and 7.8 ng g-1 ww and 5.3 ng g-1 ww; BCF (steady-state) [5]: 0.136 ^d (0.114–0.158) L kg^–1 ww |
| CCCCCCCCCCCOS(=O)(=O)O [C11SO4, undecylsulfate] | 0.57 L kg-1 ww | -0.11 L kg-1 ww | 5.9 ng g-1 ww and 5.5 ng g-1 ww and 6.7 ng g-1 ww | 4.6 ng g-1 ww and 4.4 ng g-1 ww and 3.8 ng g-1 ww | 6.6 ng g-1 ww and 3.0 ng g-1 ww and 3.5 ng g-1 ww | 1.5 ng g-1 ww and 2.0 ng g-1 ww and 2.7 ng g-1 ww | 1.06 ng g-1 ww and 0.77 ng g-1 ww and 0.51 ng g-1 ww | 0.66 ng g-1 ww and 0.48 ng g-1 ww and 0.54 ng g-1 ww | 0.53 ng g-1 ww and 0.27 ng g-1 ww and 0.19 ng g-1 ww | 0.59 ng g-1 ww and 0.22 ng g-1 ww and 0.17 ng g-1 ww | 0.08 ng g-1 ww and 0.13 ng g-1 ww and 0.09 ng g-1 ww | 0.84 ng g-1 ww and 0.15 ng g-1 ww (2×) | 3.1 ng g-1 ww and 3.6 ng g-1 ww and 4.1 ng g-1 ww | 5.6 ng g-1 ww and 4.4 ng g-1 ww and 4.1 ng g-1 ww | 7.5 ng g-1 ww and 9.4 ng g-1 ww and 7.6 ng g-1 ww | 10.7 ng g-1 ww and 11.2 ng g-1 ww and 18.0 ng g-1 ww | 15.8 ng g-1 ww and 14.7 ng g-1 ww and 14.1 ng g-1 ww | 18.5 ng g-1 ww and 15.1 ng g-1 ww and 10.9 ng g-1 ww | 7.4 ng g-1 ww and 12.0 ng g-1 ww and 11.2 ng g-1 ww | 12.6 ng g-1 ww and 8.7 ng g-1 ww and 8.2 ng g-1 ww | Elimination rate constant kT [1]: 0.233 h⁻¹; Uptake rate constant kU [1]: 0.133 L/kg/h; Concentration in fish (exposure phase, 96 h): 9.9 ng g-1 ww and 8.7 ng g-1 ww and 14.1 ng g-1 ww; Elimination rate constant kT [2]: 0.178 (0.151–0.206) h^–1; Uptake rate constant kU [2]: 0.136 (0.113–0.163) L kg^–1 ww h^–1; diffusion coefficient (D) in the epithelial membrane of the gills: 3.7 × 10^–8 m h^–1; BCF (kinetic) [3]: 0.77 (0.68–0.87) L kg^–1 ww; BCF [4]: 0.74 (33) L kg-1 ww; Elimination rate constant kT [4]: 0.179 (19) h-1; Uptake rate constant kU [4]: 0.133 (27) L kg-1 ww h-1; BCF (own values): 0.77 L kg^–1 |
